{"source": "patent US20260315475A1", "about": "(priority 2023, published 2026)", "key": {"[1]": {"conditions": "cited from earlier work"}, "[2]": {"conditions": "cited from earlier work", "remark": "listed apart in the source"}, "CYP3A4": {"test_system": "CYP3A4", "conditions": "in vitro, high concentrations; cited from earlier work"}, "[3]": {"conditions": "healthy volunteers, per label; cited from earlier work"}, "[4]": {"experiment": "Phase I single-dose open-label pharmacokinetic study in participants with normal hepatic function and varying degrees of hepatic impairment", "assay_type": "in vivo, human", "conditions": "for MRAUC (metabolite/parent ratio based on AUC): geometric mean (CV %); for tlast: plasma, single oral 200 mg belumosudil, fed, median", "text": "The primary objective was to assess the pharmacokinetic (PK) of belumosudil following a single oral dose of belumosudil in participants with mild, moderate, or severe hepatic impairment compared to healthy participants with normal hepatic function.\nThe secondary objectives were: to evaluate the safety and tolerability of a single oral dose of belumosudil in participants with mild, moderate, or severe hepatic impairment, and in healthy participants with normal hepatic function; to assess the PK of the belumosudil metabolites following a single oral dose of belumosudil in participants with mild, moderate, or severe hepatic impairment compared to healthy participants with normal hepatic function.\nApproximately 38 participants were to be enrolled into the following groups based on their hepatic function, as determined according to the Child-Pugh system. • Group 1 (n=approximately 16): matched healthy participants with normal hepatic function • Group 2 (n=8): participants with mild hepatic impairment (Child-Pugh Class A [score of 5 or 6]) • Group 3 (n=8): participants with moderate hepatic impairment (Child-Pugh Class B [score of 7 to 9]) • Group 4 (n=6): participants with severe hepatic impairment (Child-Pugh Class C [score of 10 to 14]).\nHealthy participants with normal hepatic function (Group 1) were demographically matched by age (±10 years), sex, and body mass index (BMI; +20%) to participants with hepatic impairment (Groups 2, 3, and 4). Participants with normal hepatic function could be matched to multiple participants across the 3 hepatic impairment groups (mild, moderate, and severe), but could not be matched to more than 1 participant within the same impairment group.\nPharmacokinetic blood samples were obtained from predose until 48 hours postdose (Day 3).\nSummary tables, mean (+standard deviation [SD]) figures, overlaying individual figures, and individual figures by hepatic function and time postdose were provided for plasma PK concentrations. Summary tables by hepatic function were provided for all PK parameters, with the exception of terminal phase regression-related diagnostic parameters (λz, λz upper, λ z lower, λz number of points, R2-adj, and % AUCextrap), which were listed only.\nAll other PK parameters were regarded as secondary and were not participant to inferential statistical analysis."}}, "note": "Counter-ions that a name gives are not always drawn.", "data": [{"compound": "C=CC(=O)N1CCC[C@@H](n2nc(-c3ccc(Oc4ccccc4)cc3)c3c(N)ncnc32)C1", "note": "[ibrutinib]", "values": [{"measurement": "overall response rate (ORR)", "setting": "[1]; cGVHD patients with >25% body surface area erythematous rash or NIH mouth score >4", "value": 67, "unit": "%"}, {"measurement": "discontinuation rate because of TEAEs", "setting": "[1]; cGVHD patients", "value": 43, "unit": "%"}]}, {"compound": "CC(C)NC(=O)COc1cccc(-c2nc(Nc3ccc4[nH]ncc4c3)c3ccccc3n2)c1", "note": "[belumosudil mesylate, 2-{3-[4-(1H-indazol-5-ylamino)-2-quinazolinyl]phenoxy}-N-(propan-2-yl) acetamide methanesulfonate (1:1)]", "values": [{"measurement": "solubility in DMF", "setting": "[2]; DMF", "value": "slightly soluble"}, {"measurement": "solubility in DMSO", "setting": "[2]; DMSO", "value": "soluble"}, {"measurement": "solubility in methanol", "setting": "[2]; methanol", "value": "slightly soluble"}, {"measurement": "solubility in water", "setting": "[2]; water", "value": "practically insoluble"}]}, {"compound": "CO[C@H]1/C=C/O[C@@]2(C)Oc3c(C)c(O)c4c(O)c(c5c(nc6cc(C)ccn65)c4c3C2=O)NC(=O)/C(C)=C\\C=C\\[C@H](C)[C@H](O)[C@@H](C)[C@@H](O)[C@@H](C)[C@H](OC(C)=O)[C@@H]1C", "note": "[rifaximin]", "values": [{"measurement": "CYP3A4 induction", "setting": "CYP3A4", "value": "CYP3A4 inducer at high concentrations"}, {"measurement": "drug-drug interaction (DDI) effects", "setting": "[3]", "value": "not shown to have drug-drug interaction (DDI) effects"}]}, {"compound": "O=C(O)COc1cccc(-c2nc(Nc3ccc4[nH]ncc4c3)c3ccccc3n2)c1", "note": "[KD025m2]", "values": [{"measurement": "MRAUC (metabolite/parent ratio based on AUC)", "setting": "[4]; mild hepatic impairment", "value": "0.135 (73.8%)"}, {"measurement": "MRAUC (metabolite/parent ratio based on AUC)", "setting": "[4]; mild hepatic impairment, listed as KD025 m2", "value": "0.135 (73.8) [8]"}, {"measurement": "MRAUC (metabolite/parent ratio based on AUC)", "setting": "[4]; moderate hepatic impairment", "value": "0.318 (70.5%)"}, {"measurement": "MRAUC (metabolite/parent ratio based on AUC)", "setting": "[4]; moderate hepatic impairment, listed as KD025 m2", "value": "0.318 (70.5) [7]"}, {"measurement": "MRAUC (metabolite/parent ratio based on AUC)", "setting": "[4]; normal hepatic function", "value": "0.103 (68.8%)"}, {"measurement": "MRAUC (metabolite/parent ratio based on AUC)", "setting": "[4]; normal hepatic function, listed as KD025 m2", "value": "0.103 (68.8) [14]"}, {"measurement": "tlast", "setting": "[4]; mild hepatic impairment", "value": 23.9, "unit": "h"}, {"measurement": "tlast", "setting": "[4]; moderate hepatic impairment", "value": 48.0, "unit": "h"}, {"measurement": "tlast", "setting": "[4]; normal hepatic function", "value": 14.0, "unit": "h"}, {"measurement": "tlast", "setting": "[4]; severe hepatic impairment", "value": 48.0, "unit": "h"}, {"measurement": "MRAUC (metabolite/parent ratio based on AUC)", "setting": "[4]; severe hepatic impairment", "value": "0.680 (63.5%)"}, {"measurement": "MRAUC (metabolite/parent ratio based on AUC)", "setting": "[4]; severe hepatic impairment, listed as KD025 m2", "value": "0.680 (63.5) [4]"}]}]}
